From US8809304B2, “Amine compound and use thereof for medical purposes” (Mitsubishi Tanabe Pharma Corporation, priority 2005, dated 2014)
Where a name gives a salt, the structure may show the parent alone.

System: not listed separately
Assay: Effect on heart rate in rat telemetry
Assay type: in vivo, Sprague-Dawley (IGS) rats
Conditions: orally administered, up to the dose of 30 mg/kg body weight, measured from 24 hr before to 72 hr after administration
Experimental: Effect on Heart Rate in Rat Telemetry
Male Sprague-Dawley (IGS) rats were anesthetized by intraperitoneal administration of Nembutal (manufactured by DAINIPPON PHARMACEUTICAL CO., LTD.), a pressure sensor connected to a telemetry transmitter (TL11M2-C50-PTX, manufactured by Data Sciences International) was inserted into the abdominal artery, and the transmitter was subcutaneously dwelled in the abdomen. The data of blood pressure and heart rate were recorded by an analysis soft (Dataquest A.R.T., Data Science) via a receiver (RPC-1, manufactured by Data Sciences International). When 10 days to 2 weeks elapsed from the surgery, recovery of heart rate circadian rhythm was confirmed, and the rats were subjected to the experiment. The compound of the present invention was suspended in 0.5% hydroxypropylmethylcellulose (manufactured by Shin-Etsu Chemical Co., Ltd.) and orally administered. The heart rate was measured from 24 hr before the administration to 72 hr after the administration.

SMILES | effect on heart rate of the rat
CCCCCCCOc1ccc(CCC(N)(CO)CO)cc1C(F)(F)F.Cl [compound 1-3, 2-amino-2-[2-(4-heptyloxy-3-trifluoromethylphenyl)ethyl]propane-1,3-diol Hydrochloride] | did not affect the heart rate

System: peripheral blood lymphocyte count
Assay: Evaluation of peripheral blood lymphocyte count-decreasing effect in mice
Assay type: in vivo
Conditions: male BALB/cAnNCrj mice, intraperitoneally administered, 24 hr after administration

SMILES | mouse peripheral blood lymphocyte count-decreasing effect, ED50 value (dose necessary for 50% reduction of the lymphocyte count of vehicle group as 100%) [mg/kg body weight]
CCCCCCCOc1ccc(CCC(N)(CO)CO)cc1C.Cl [comparison compound 1-7, 2-amino-2-[2-(4-heptyloxy-3-methylphenyl)ethyl]propane-1,3-diol Hydrochloride, reference compound] | 0.64
CCCCCCCOc1ccc(CCC(N)(CO)CO)cc1C(F)(F)F.Cl [compound 1-3, 2-amino-2-[2-(4-heptyloxy-3-trifluoromethylphenyl)ethyl]propane-1,3-diol Hydrochloride] | 0.04
CCCCCCCOc1ccc(CCC(C)(N)CO)cc1C(F)(F)F.Cl (stereo not drawn) [compound 13-6, 2-amino-4-(4-heptyloxy-3-trifluoromethylphenyl)-2-methylbutanol Hydrochloride] | 0.02
CCCCCCCOc1ccc(CC[C@@](C)(N)CO)cc1C(F)(F)F.Cl [compound 15-3, (R)-2-amino-4-(4-heptyloxy-3-trifluoromethylphenyl)-2-methylbutanol Hydrochloride] | 0.02
CCCCCCCOc1ccc(/C=C/C(N)(CO)CO)cc1C(F)(F)F [compound 28-6, (E)-2-amino-2-[2-(4-heptyloxy-3-trifluoromethylphenyl)vinyl]propane-1,3-diol Hydrochloride] | 0.03
